Laboratory results from US20120122727A1, “IN VITRO METHOD FOR PREDICTING WHETHER A COMPOUND IS GENOTOXIC IN VIVO” (priority 2009, published 2012).

Test system: primary mouse hepatocytes
Experiment: Gene expression (Affymetrix Mouse Genome 430 2.0) in primary mouse hepatocytes, true vs false GTX, 24 h and 48 h
Settings: log2, corrected for vehicle control

## Nc1ccc([N+](=O)[O-])cc1N [4-NP, 4-Nitro-o-phenylenediamine]
24 h average
  Gene expression data AF000969 (Cadps2): −0.6839
  Gene expression data AF022072 (Grb10): 0.8486
  Gene expression data AF065917 (Lif): −0.4573
  Gene expression data AF204959 (Cyp3a25 /// LOC622249): −2.025
  Gene expression data AF297615 (Ggta1): −0.2797
  Gene expression data AI594683 (Dmn): −0.3517
  Gene expression data AI596632 (Ptprg /// LOC632664): −0.4962
  Gene expression data AI987929 (Ndrg1): 2.65
  Gene expression data AK004419 (Fbxl17): −0.0775
  Gene expression data AK005731 (1700007K13Rik): −0.5111
  Gene expression data AK007766 (1810044A24Rik): −0.1697
  Gene expression data AK007854 (1810053B23Rik): −1.736
  Gene expression data AK009736 (Gpr137b /// LOC664862 /// LOC673335): 1.582
  Gene expression data AK010447 (Smyd3): 0.4967
  Gene expression data AK014608 (4632434l11Rik): 0.2958
  Gene expression data AK019979 (2610528E23Rik): 0.9384
  Gene expression data AV095209 (Mthfd1l): 0.9072
  Gene expression data AV141095 (1110033M05Rik): 0.1789
  Gene expression data AV173571 (1700106N22Rik): −0.003133
  Gene expression data AV219418 (Ldhb): −1.032
  Gene expression data AV223474 (Zdhhc14): −0.08437
  Gene expression data AV298304 (Homez): −0.5839
  Gene expression data AV327248 (Zfp365 /// LOC674611): −0.08917
  Gene expression data AV377066 (9130221J18Rik): −1.695
  Gene expression data AW240761 (Tbc1d5): 0.02697
  Gene expression data AW543460 (Pard3): 0.9127
  Gene expression data AW543723: 0.6706
  Gene expression data AW986246 (Maoa): 1.7055
  Gene expression data BB027848 (4732466D17Rik): −1.7858
  Gene expression data BB043558 (9230114K14Rik): −0.4159
  Gene expression data BB275142 (AW456874): −0.4184
  Gene expression data BB308836 (Ppm1l): 0.03763
  Gene expression data BB318221 (Zdhhc14): 0.0942
  Gene expression data BB463610 (4632434l11Rik): 0.2106
  Gene expression data BB526605 (Mipol1): 1.641
  Gene expression data BB770528 (Rai2): −1.122
  Gene expression data BB821363 (Scfd2): −0.219
  Gene expression data BC004827 (Psat1): 0.5395
  Gene expression data BC008626 (Icam1): −2.248
  Gene expression data BC010462 (BC010462): −0.8654
  Gene expression data BC012247 (Dcxr): −1.5
  Gene expression data BC012260 (Psmf1): 0.1189
  Gene expression data BC015270 (Hist2h3c2): −0.7846
  Gene expression data BC016073 (Cdkal1): 0.3627
  Gene expression data BC016265 (Ube2e2): 0.03433
  Gene expression data BC019882 (Acaa1b): −1.259
  Gene expression data BC025501 (Aaas): −0.2167
  Gene expression data BC025837 (Sbk1): −0.8181
  Gene expression data BC025915 (Cova1): 0.3343
  Gene expression data BC026422 (Tgm1): −0.8176
  Gene expression data BF719766 (Thyn1): −0.2859
  Gene expression data BG065754 (Ccng1): −0.2503
  Gene expression data BG066903 (Kif16b): 1.005
  Gene expression data BG069873 (Gnb1l): −0.1326
  Gene expression data BG070887 (Gtdc1): 0.3432
  Gene expression data BG076151 (Ppm1d): −0.2933
  Gene expression data BG261907 (Large): 0.3643
  Gene expression data BI651416 (Cdc42bpg): −0.0339
  Gene expression data BI660702 (Ell3): −0.609
  Gene expression data BM198879 (Ercc5): −0.3288
  Gene expression data BM230508 (A030007D23Rik): −0.6065
  Gene expression data NM_007987 (Fas): −1.231
  Gene expression data NM_008522 (Ltf): −0.3018
  Gene expression data NM_008576 (Abcc1): 1.696
  Gene expression data NM_011176 (St14): −0.5717
  Gene expression data NM_011316 (Saa4): −0.5909
  Gene expression data NM_012006 (Acot1): −1.4501
  Gene expression data NM_013866 (Zfp385): −0.2808
  Gene expression data NM_018770 (Igsf4a): 0.3868
  Gene expression data NM_021451 (Pmaip1): −1.505
  Gene expression data NM_025770 (Atg10): 1.051
  Gene expression data NM_028803 (Gbe1): 0.3633
  Gene expression data NM_030697 (Ankrd47): 0.1816
  Gene expression data NM_053168 (Trim11): −0.1598
  Gene expression data NM_134188 (Acot2): −0.7637
  Gene expression data Y15910 (Diap2): −0.5398
48 h
  Gene expression AA561726 average: −0.08
  Gene expression AF000969 average: −0.8202
  Gene expression AF022072 average: 0.6062
  Gene expression AF033112 average: 0.152
  Gene expression AF055573 average: −0.1973
  Gene expression AF069954 average: −0.4429
  Gene expression AF297615 average: −1.352
  Gene expression AF335325 average: 0.5071
  Gene expression AI594683 average: −0.4763
  Gene expression AI747296 average: −0.3288
  Gene expression AK005731 average: −0.9581
  Gene expression AK007854 average: −0.1411
  Gene expression AK010447 average: 0.5956
  Gene expression AK010738 average: −0.1569
  Gene expression AK014608 average: −0.3072
  Gene expression AK017734 average: −1.2326
  Gene expression AK018383 average: −0.5006
  Gene expression AK019979 average: 0.04087
  Gene expression AV095209 average: 0.6413
  Gene expression AV141095 average: −0.1051
  Gene expression AV173869 average: 0.1411
  Gene expression AV216768 average: −0.004067
  Gene expression AV219418 average: 0.6295
  Gene expression AV221299 average: 0.7477
  Gene expression AV246296 average: −1.046
  Gene expression AV251625 average: −0.1615
  Gene expression AV254764 average: −0.4499
  Gene expression AV327248 average: −0.01493
  Gene expression BB009155 average: −0.6079
  Gene expression BB027848 average: −1.954
  Gene expression BB043558 average: −0.2736
  Gene expression BB046347 average: −0.8045
  Gene expression BB140436 average: 2.071
  Gene expression BB204486 average: −0.0837
  Gene expression BB223872 average: −0.6536
  Gene expression BB246912 average: 0.3026
  Gene expression BB275142 average: −0.1963
  Gene expression BB458460 average: 0.1645
  Gene expression BB463610 average: 0.03727
  Gene expression BB730977 average: 0.992
  Gene expression BB743970 average: −0.1636
  Gene expression BB770528 average: −0.9985
  Gene expression BB781615 average: −0.7501
  Gene expression BC003284 average: −0.5876
  Gene expression BC004827 average: −0.2247
  Gene expression BC005552 average: 0.4521
  Gene expression BC006713 average: −0.7469
  Gene expression BC010318 average: 0.1861
  Gene expression BC012247 average: −0.6355
  Gene expression BC012955 average: 0.1051
  Gene expression BC013893 average: −1.496
  Gene expression BC017615 average: −1.535
  Gene expression BC019379 average: −0.5665
  Gene expression BC019882 average: −2.4942
  Gene expression BC021352 average: −1.28
  Gene expression BC022148 average: −1.1322
  Gene expression BC025169 average: 0.3712
  Gene expression BC026131 average: 0.2124
  Gene expression BC027026 average: 0.05273
  Gene expression BC027121 average: −0.2406
  Gene expression BC027185 average: −1.382
  Gene expression BE956581 average: 0.0346
  Gene expression BF719766 average: −0.5024
  Gene expression BG065754 average: −0.3381
  Gene expression BG066491 average: −0.8219
  Gene expression BG076151 average: −0.6573
  Gene expression BG076333 average: 0.8731
  Gene expression BG797099 average: −0.06697
  Gene expression BG967046 average: −0.6324
  Gene expression BI651416 average: −0.02873
  Gene expression BI966443 average: 0.2259
  Gene expression BM198879 average: −0.4213
  Gene expression BM200015 average: −0.4429
  Gene expression BM230508 average: −0.9731
  Gene expression BM936480 average: −0.412
  Gene expression BQ174991 average: 0.4017
  Gene expression L21027 average: −0.03073
  Gene expression NM_007556 average: 0.4274
  Gene expression NM_007980 average: −1.581
  Gene expression NM_007987 average: −0.8469
  Gene expression NM_008522 average: −0.2393
  Gene expression NM_008935 average: −1.002
  Gene expression NM_009897 average: −0.01903
  Gene expression NM_011075 average: −1.008
  Gene expression NM_011176 average: −1.635
  Gene expression NM_011316 average: −0.9295
  Gene expression NM_012006 average: −0.006733
  Gene expression NM_013642 average: 1.007
  Gene expression NM_013738 average: −1.171
  Gene expression NM_013929 average: 0.1753
  Gene expression NM_018881 average: −0.2965
  Gene expression NM_019738 average: −1.132
  Gene expression NM_030697 average: −0.3339
  Gene expression NM_053122 average: −0.09647
  Gene expression NM_134147 average: 0.01433
  Gene expression NM_134188 average: −0.4402
  Gene expression X62701 average: 0.7376
